Measurements: PubChem BioAssay (NCI)
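Compound exposure: 48 hours, 5 concentrations, 96-well plates. The concentration for 50% growth inhibition is given as GI50. At the TGI there is no net growth.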

How the values were obtained:
Experiment in all cases: inhibition of tumour cell growth, NCI panel, 48 h
[1] = system: 786-0 renal
[2] = system: A498 renal
[3] = system: A549 NSCLC
[4] = system: ACHN renal
[5] = system: CAKI-1 renal
[6] = system: CCRF-CEM leukemia
[7] = system: COLO 205 colon
[8] = system: DLD-1 colon
[9] = system: EKVX NSCLC
[10] = system: HCC-2998 colon
[11] = system: HCT-116 colon
[12] = system: HCT-15 colon
[13] = system: HL-60(TB) leukemia
[14] = system: HOP-18 NSCLC
[15] = system: HOP-62 NSCLC
[16] = system: HOP-92 NSCLC
[17] = system: HT29 colon
[18] = system: IGROV1 ovarian
[19] = system: K-562 leukemia
[20] = system: KM12 colon
[21] = system: KM20L2 colon
[22] = system: LOX IMVI melanoma
[23] = system: LXFL 529 NSCLC
[24] = system: M14 melanoma
[25] = system: M19-MEL melanoma
[26] = system: MALME-3M melanoma
[27] = system: MOLT-4 leukemia
[28] = system: NCI-H226 lung
[29] = system: NCI-H23 lung
[30] = system: NCI-H460 lung
[31] = system: NCI-H522 lung
[32] = system: OVCAR-3 ovarian
[33] = system: OVCAR-4 ovarian
[34] = system: OVCAR-5 ovarian
[35] = system: OVCAR-8 ovarian
[36] = system: RPMI-8226 leukemia
[37] = system: RXF 393 renal
[38] = system: SF-268 CNS
[39] = system: SF-295 CNS
[40] = system: SF-539 CNS
[41] = system: SK-MEL-2 melanoma
[42] = system: SK-MEL-28 melanoma
[43] = system: SK-MEL-5 melanoma
[44] = system: SK-OV-3 ovarian
[45] = system: SN12C renal
[46] = system: SNB-19 CNS
[47] = system: SNB-75 CNS
[48] = system: SW-620 colon
[49] = system: TK-10 renal
[50] = system: U251 CNS
[51] = system: UACC-257 melanoma
[52] = system: UACC-62 melanoma
[53] = system: UO-31 renal

In the case of `CC(=O)[CH-]C(=O)c1ccccc1.CC(=O)[CH-]C(=O)c1ccccc1.CC(=O)[CH-]C(=O)c1ccccc1.[Tl+3]`, the GI50 [1] was 49.2 µM, the TGI [1] was greater than 100 µM and the GI50 [2] was greater than 100 µM. The TGI [2] was greater than 100 µM, the GI50 [3] was 42.1 µM and the TGI [3] was greater than 100 µM. For the same molecule, the GI50 [4] was 51.1 µM, the TGI [4] was greater than 100 µM and the GI50 [5] was 75 µM. The TGI [5] was greater than 100 µM, the GI50 [6] was 6.81 µM and the TGI [6] was 30.9 µM. The GI50 [7] was 25.9 µM, the TGI [7] was 97.7 µM and the GI50 [8] was 22.2 µM. For the same molecule, the TGI [8] was greater than 100 µM, the GI50 [9] was 31.8 µM and the TGI [9] was greater than 100 µM. It also gave a GI50 [10] of 37.5 µM, a TGI [10] greater than 100 µM and a GI50 [11] of 28.2 µM. For the same molecule, the TGI [11] was greater than 100 µM, the GI50 [12] was 41.7 µM and the TGI [12] was greater than 100 µM. The GI50 [13] was 4.83 µM, the TGI [13] was 16.9 µM and the GI50 [14] was greater than 100 µM. It also gave a TGI [14] greater than 100 µM, a GI50 [15] of 33.5 µM and a TGI [15] of 99.9 µM. It also gave a GI50 [16] of 40.6 µM, a TGI [16] greater than 85.7 µM and a GI50 [17] of 57.1 µM. For the same molecule, the TGI [17] was greater than 100 µM, the GI50 [18] was 24.5 µM and the TGI [18] was greater than 68.6 µM. For the same molecule, the GI50 [19] was 2.32 µM, the TGI [19] was greater than 100 µM and the GI50 [20] was 42.8 µM. It also gave a TGI [20] greater than 100 µM, a GI50 [21] of 45.6 µM and a TGI [21] greater than 100 µM. The GI50 [22] was 42.7 µM, the TGI [22] was greater than 100 µM and the GI50 [23] was 56.2 µM. The TGI [23] was greater than 100 µM, the GI50 [24] was 24.7 µM and the TGI [24] was greater than 93 µM. The GI50 [25] was 38 µM, the TGI [25] was greater than 100 µM and the GI50 [26] was 20.2 µM. It also gave a TGI [26] of 49.2 µM, a GI50 [27] of 18.8 µM and a TGI [27] greater than 69.4 µM. The GI50 [28] was 35.7 µM, the TGI [28] was greater than 100 µM and the GI50 [29] was 45.4 µM. For the same molecule, the TGI [29] was greater than 100 µM, the GI50 [30] was 22.6 µM and the TGI [30] was greater than 100 µM. The GI50 [31] was greater than 54.7 µM, the TGI [31] was greater than 100 µM and the GI50 [32] was 24.1 µM. It also gave a TGI [32] greater than 75.5 µM, a GI50 [33] of 26.1 µM and a TGI [33] greater than 100 µM. For the same molecule, the GI50 [34] was greater than 100 µM, the TGI [34] was greater than 100 µM and the GI50 [35] was 59.3 µM. The TGI [35] was greater than 100 µM, the GI50 [36] was 11.1 µM and the TGI [36] was greater than 100 µM. It also gave a GI50 [37] of 56.2 µM, a TGI [37] greater than 100 µM and a GI50 [38] of 29.3 µM. It also gave a TGI [38] greater than 100 µM, a GI50 [39] of 48.7 µM and a TGI [39] greater than 100 µM. For the same molecule, the GI50 [40] was 36.9 µM, the TGI [40] was greater than 100 µM and the GI50 [41] was 15.7 µM. For the same molecule, the TGI [41] was greater than 100 µM, the GI50 [42] was 74.3 µM and the TGI [42] was greater than 100 µM. It also gave a GI50 [43] of 24.4 µM, a TGI [43] greater than 66.8 µM and a GI50 [44] greater than 61.8 µM. The TGI [44] was greater than 100 µM, the GI50 [45] was 72.6 µM and the TGI [45] was greater than 100 µM. The GI50 [46] was 95.2 µM, the TGI [46] was greater than 100 µM and the GI50 [47] was 48.1 µM. It also gave a TGI [47] greater than 100 µM, a GI50 [48] of 57.5 µM and a TGI [48] greater than 100 µM. For the same molecule, the GI50 [49] was greater than 59.2 µM, the TGI [49] was greater than 100 µM and the GI50 [50] was 42.6 µM. For the same molecule, the TGI [50] was greater than 100 µM, the GI50 [51] was 26.3 µM and the TGI [51] was 82.7 µM. It also gave a GI50 [52] of 32 µM, a TGI [52] greater than 100 µM and a GI50 [53] of 30.2 µM. It also gave a TGI [53] greater than 100 µM.
